Here are results for one compound from publication PMC9694494, “Resveratrol/Hydrazone Hybrids: Synthesis and Chemopreventive Activity against Colorectal Cancer Cells” (Pharmaceutics, 2022).

In test [1] the test system is SW620 cells. The test can be described thus: Antiproliferative activity (SRB, 2-8 days), SW620. The conditions noted are these: Homo sapiens, read-out: Viability (%) ± SE; for viability at 3 µM: SW620, 3 µM; for viability at 6 µM: SW620, 6 µM; for viability at 12 µM: SW620, 12 µM; for viability at 24 µM: SW620, 24 µM; for viability at 48 µM: SW620, 48 µM. It counts as cell-based. The protocol: The procedure for evaluating the antiproliferative activity was carried out using the same colorimetric test (SRB) described for cell viability, with minor modifications. Briefly, 2500 cells/well were seeded in 96-well tissue culture plates and incubated as in the previously described conditions for 0, 2, 4, 6, and 8 days. […] The culture medium was changed every 48 h. After each incubation time, cells were fixed, stained, and read as previously described for this technique.

Test [2] relates to SW620 cells. In words: Cell cycle analysis (PI flow cytometry), SW620. Format: cell-based, human. The conditions noted are these: SW620, 48 h treatment. The protocol:
Cell staining with the fluorescent propidium iodide (PI) was used to measure cell cycle distribution. The assays were carried out following the previous methodology described by Nicoletti et al. (1991). Briefly, 2.5 × 10^5 cells/well were seeded in 6-well tissue culture plates at 37 °C and 5% CO2. After 24 h of adherence, cells were treated during 48 h with hybrids 6e and 7, together with the vehicle control. At the end of each treatment, cells were scraped, and the centrifuged pellet was resuspended in 1.8 mL of 70% ethanol at 4 °C to fix the cells overnight. Then, after centrifugation, cells were washed twice in versene buffer to completely remove the alcohol, besides, they were further resuspended in 300 µL of PBS containing 0.25 mg/mL RNAse (Type I-A, Sigma-Aldrich, Darmstadt, Germany) and 0.1 mg/mL PI. After the incubation in the dark (for 30 min at room temperature), 10,000 events were analyzed with a FACS Canto II flow cytometer and the software BD FACS Diva 6.1.3. (BD Biosciences, San Jose, CA, USA). The PI fluorescence signal was analyzed with excitation at 488 nm (using a Sapphire laser), and detection at 610 nm. The cell cycle model was fixed with FlowJo 7.6.2 (Ashland, OR, USA), applying the Dean-Jett-Fox model.
In general terms: A flow cytometer gives signals particle by particle.

The test system of test [3] is SW620 cells. In words: Cell death induction (Annexin-V/FITC and PI flow cytometry), SW620. It counts as cell-based, human. The settings on record: SW620, 48 h exposure. The protocol: (§1) Flow cytometric analysis using a double fluorescent staining with Annexin-V/FITC and propidium iodide (Roche Diagnostics) was used to evaluate phosphatidylserine exposure and membrane damage. Colon cancer cells (SW480 and SW620) were seeded at 2.5 × 10^5 in each 6-well plate and treated for 48 h. […] At the end of each treatment, cells were scraped and centrifuged. The pellet was resuspended in versene buffer with the fluorescent dyes and incubated for 20 min in darkness. Data were analyzed with FlowJo 7.6.2 (Ashland, OR, USA). Cells with double-positive staining for Annexin-V and PI were considered late apoptotic or dead cells, while the single staining with Annexin-V/FITC (Annexin-V/FITC positive) or propidium iodide (PI positive) was considered for early apoptotic or necrotic cells, respectively. Assays were performed twice.

For another test, the system named is SW480 cells. The test can be described thus: Cell death induction (Annexin-V/FITC and PI flow cytometry), SW480. Format: cell-based, human. The settings on record: SW480, 48 h exposure. The protocol:
as §1

The mark [4] stands for this setting: SW-620, 48 h, 2 days after plating.
Setting [5] is: SW-620, 96 h, 4 days after plating.
[6] abbreviates: SW-620, 144 h, 6 days after plating.
The mark [7] stands for this setting: SW-620, 192 h, 8 days after plating.

Like-named read-outs stand apart in the source and are kept apart here.

What is called viability is the share of living cells, or the viability signal relative to a control. For the compound `O=C(N/N=C/c1c(O)cc(O)cc1/C=C/c1ccc(O)cc1)c1ccncc1` [compound 7, N′-((E)-2,4-dihydroxy-6-((E)-4-hydroxystyryl)benzylidene)isonicotinohydrazide], in the test with SW620 cells [1] (setting [4]), the viability at 3 µM is 89.3 ± 1.65%, the viability at 6 µM was 88 ± 2.48%, the viability at 12 µM is 67.82 ± 0.4% and the viability at 24 µM came out at 45.21 ± 0.38%. For the same compound, in the test with SW620 cells [1] (setting [4]), the viability at 48 µM was 41.5 ± 3.3%. In the test on SW620 cells [1] (setting [5]), the viability at 3 µM was found to be 87.29 ± 0.75%, the viability at 6 µM worked out at 72.4 ± 0.9%, the viability at 12 µM is 33 ± 1.8% and the viability at 24 µM was 27.8 ± 2.96%. Further, the viability at 48 µM in the test with SW620 cells [1] (setting [5]) amounted to 6.31 ± 0.74%. Further, in the test with SW620 cells [1] (setting [6]), the viability at 3 µM stood at 59.2 ± 2.77%, the viability at 6 µM came to 43.4 ± 0.48%, the viability at 12 µM was 17.8 ± 0.3% and the viability at 24 µM worked out at 8.13 ± 1.48%. The viability at 48 µM in the test with SW620 cells [1] (setting [6]) is 0.26 ± 0.07%. Further, in the test on SW620 cells [1] (setting [7]), the viability at 3 µM was 46.55 ± 0.03%, the viability at 6 µM worked out at 38.53 ± 0.28%, the viability at 12 µM came to 5.53 ± 0.11% and the viability at 24 µM turned out to be 3.93 ± 0.59%. For the same compound, the viability at 48 µM in the test with SW620 cells [1] (setting [7]) came out at 0%. Also, in the test on SW620 cells [2], the “Cell cycle distribution Sub G0/G1” value came to 20.60%. In addition, in the test on SW620 cells [3], the “plasma membrane integrity (PI positive staining)” value is listed as “induced plasma membrane disintegration”. In the test on SW480 cells, the “plasma membrane integrity (PI positive staining)” value is listed as “induced plasma membrane disintegration”.
